Experimental data from ChEMBL document CHEMBL1201862, “PubChem BioAssay data set” (2004).
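Exposure lasted 48 hours, with cells grown in 96-well plates and compounds tested at five concentrations. GI50: concentration for 50% inhibition of growth.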 Active and inactive are the calls of the source. Cut-off read from the data, not from the text of the source: active = GI50 up to about 1.1 µM and inactive = higher.

How the values were obtained:
Assay in all cases: NCI anticancer screen, dose series, 48 h
DU-145 = test system: DU-145
KM12 = test system: KM12
MDA-MB-231 = test system: MDA-MB-231
OVCAR-5 = test system: OVCAR-5
SK-OV-3 = test system: SK-OV-3
SR = test system: SR
CCRF-CEM = test system: CCRF-CEM
SNB-19 = test system: SNB-19
MCF7 = test system: MCF7
SK-MEL-5 = test system: SK-MEL-5
SF-539 = test system: SF-539
NCI/ADR-RES = test system: NCI/ADR-RES
M14 = test system: M14
CAKI-1 = test system: CAKI-1
MDA-MB-435 = test system: MDA-MB-435
BT-549 = test system: BT-549
OVCAR-8 = test system: OVCAR-8
HCT-15 = test system: HCT-15
HCC 2998 = test system: HCC 2998
SW-620 = test system: SW-620
SK-MEL-28 = test system: SK-MEL-28
UO-31 = test system: UO-31
UACC-257 = test system: UACC-257
HL-60 = test system: HL-60
K562 = test system: K562
TK-10 = test system: TK-10
U-251 = test system: U-251
RPMI-8226 = test system: RPMI-8226
NCI-H226 = test system: NCI-H226
A549 = test system: A549
HOP-62 = test system: HOP-62
NCI-H460 = test system: NCI-H460
PC-3 = test system: PC-3
786-0 = test system: 786-0
IGROV-1 = test system: IGROV-1
EKVX = test system: EKVX
UACC-62 = test system: UACC-62
A498 = test system: A498
SN12C = test system: SN12C
Hs-578T = test system: Hs-578T
Malme-3M = test system: Malme-3M
NCI-H522 = test system: NCI-H522
LOX IMVI = test system: LOX IMVI
SF-268 = test system: SF-268
T47D = test system: T47D
COLO 205 = test system: COLO 205
NCI-H23 = test system: NCI-H23
SF-295 = test system: SF-295
ACHN = test system: ACHN
MDA-N = test system: MDA-N
MOLT-4 = test system: MOLT-4
HT-29 = test system: HT-29
OVCAR-3 = test system: OVCAR-3
HCT-116 = test system: HCT-116
SK-MEL-2 = test system: SK-MEL-2
HOP-92 = test system: HOP-92
SNB-75 = test system: SNB-75
RXF 393 = test system: RXF 393
OVCAR-4 = test system: OVCAR-4

With `COc1c(O)c(OC)c2oc(-c3ccc(O)cc3)c(OC)c(=O)c2c1O` the GI50 (DU-145) was 29.3 µM (inactive), the GI50 (KM12) was 88.5 µM (inactive) and the GI50 (MDA-MB-231) was 42.5 µM (inactive). The GI50 (OVCAR-5) was > 100 µM (inactive), the GI50 (SK-OV-3) was 17 µM (inactive) and the GI50 (SR) was 60.1 µM (inactive). The GI50 (CCRF-CEM) was 37.5 µM (inactive), the GI50 (SNB-19) was > 100 µM (inactive) and the GI50 (MCF7) was 41.7 µM (inactive). For the same molecule, the GI50 (SK-MEL-5) was 17.4 µM (inactive), the GI50 (SF-539) was 55.3 µM (inactive) and the GI50 (NCI/ADR-RES) was 61 µM (inactive). For the same molecule, the GI50 (M14) was 47.2 µM (inactive), the GI50 (CAKI-1) was 27.8 µM (inactive) and the GI50 (MDA-MB-435) was 33.6 µM (inactive). For the same molecule, the GI50 (BT-549) was 43.2 µM (inactive), the GI50 (OVCAR-8) was 38 µM (inactive) and the GI50 (HCT-15) was 28.1 µM. For the same molecule, the GI50 (HCC 2998) was 32 µM (inactive), the GI50 (SW-620) was 34.5 µM (inactive) and the GI50 (SK-MEL-28) was 81.8 µM (inactive). For the same molecule, the GI50 (UO-31) was 34.7 µM (inactive), the GI50 (UACC-257) was 76.2 µM (inactive) and the GI50 (HL-60) was > 100 µM (inactive). For the same molecule, the GI50 (K562) was 55.6 µM (inactive), the GI50 (TK-10) was 61.5 µM (inactive) and the GI50 (U-251) was 23.9 µM (inactive). The GI50 (RPMI-8226) was 56.9 µM (inactive), the GI50 (NCI-H226) was 50.9 µM (inactive) and the GI50 (A549) was 44.2 µM (inactive). The GI50 (HOP-62) was 24.4 µM (inactive), the GI50 (NCI-H460) was 45.7 µM (inactive) and the GI50 (PC-3) was 48.6 µM (inactive). The GI50 (786-0) was 17.8 µM (inactive), the GI50 (IGROV-1) was 17.8 µM (inactive) and the GI50 (EKVX) was 97.5 µM (inactive). The GI50 (UACC-62) was 22.7 µM (inactive), the GI50 (A498) was 30.3 µM (inactive) and the GI50 (SN12C) was 70.6 µM (inactive). For the same molecule, the GI50 (Hs-578T) was 18.4 µM (inactive), the GI50 (Malme-3M) was 13.4 µM (inactive) and the GI50 (NCI-H522) was 26.1 µM (inactive). The GI50 (LOX IMVI) was 30.9 µM (inactive), the GI50 (SF-268) was 8.73 µM (inactive) and the GI50 (T47D) was 10.2 µM (inactive). The GI50 (COLO 205) was 99.5 µM (inactive), the GI50 (NCI-H23) was 30.8 µM (inactive) and the GI50 (SF-295) was > 100 µM (inactive). The GI50 (ACHN) was 33.6 µM (inactive), the GI50 (MDA-N) was 79.4 µM (inactive) and the GI50 (MOLT-4) was 57 µM (inactive). For the same molecule, the GI50 (HT-29) was 32.4 µM (inactive), the GI50 (OVCAR-3) was 14.8 µM (inactive) and the GI50 (HCT-116) was 46.3 µM (inactive). For the same molecule, the GI50 (SK-MEL-2) was 42.5 µM (inactive).
`COc1cc(OC)c(/C=C/c2cnc3ccccc3n2)c(OC)c1` was tested, and the GI50 (DU-145) was > 10 µM (inactive), the GI50 (KM12) was > 10 µM (inactive) and the GI50 (MDA-MB-231) was > 10 µM (inactive). The GI50 (OVCAR-5) was > 10 µM (inactive), the GI50 (SK-OV-3) was > 10 µM (inactive) and the GI50 (CCRF-CEM) was > 10 µM (inactive). The GI50 (SNB-19) was > 10 µM (inactive), the GI50 (MCF7) was > 10 µM (inactive) and the GI50 (HOP-92) was > 10 µM (inactive). The GI50 (SK-MEL-5) was > 10 µM (inactive), the GI50 (SF-539) was > 10 µM (inactive) and the GI50 (NCI/ADR-RES) was > 10 µM (inactive). The GI50 (M14) was > 10 µM (inactive), the GI50 (CAKI-1) was > 10 µM (inactive) and the GI50 (MDA-MB-435) was > 10 µM (inactive). The GI50 (BT-549) was > 10 µM (inactive), the GI50 (OVCAR-8) was > 10 µM (inactive) and the GI50 (HCT-15) was over 10 µM. The GI50 (HCC 2998) was > 10 µM (inactive), the GI50 (SW-620) was > 10 µM (inactive) and the GI50 (SK-MEL-28) was > 10 µM (inactive). For the same molecule, the GI50 (UO-31) was 0.0561 µM (active), the GI50 (UACC-257) was > 10 µM (inactive) and the GI50 (HL-60) was > 10 µM (inactive). For the same molecule, the GI50 (K562) was > 10 µM (inactive), the GI50 (TK-10) was > 10 µM (inactive) and the GI50 (U-251) was > 10 µM (inactive). For the same molecule, the GI50 (RPMI-8226) was > 10 µM (inactive), the GI50 (NCI-H226) was > 10 µM (inactive) and the GI50 (A549) was > 10 µM (inactive). For the same molecule, the GI50 (HOP-62) was > 10 µM (inactive), the GI50 (NCI-H460) was > 10 µM (inactive) and the GI50 (PC-3) was > 10 µM (inactive). The GI50 (SNB-75) was > 10 µM (inactive), the GI50 (786-0) was > 10 µM (inactive) and the GI50 (RXF 393) was > 10 µM (inactive). For the same molecule, the GI50 (IGROV-1) was > 10 µM (inactive), the GI50 (EKVX) was > 10 µM (inactive) and the GI50 (UACC-62) was > 10 µM (inactive). The GI50 (A498) was > 10 µM (inactive), the GI50 (SN12C) was > 10 µM (inactive) and the GI50 (Hs-578T) was > 10 µM (inactive). For the same molecule, the GI50 (Malme-3M) was > 10 µM (inactive), the GI50 (NCI-H522) was > 10 µM (inactive) and the GI50 (LOX IMVI) was > 10 µM (inactive). For the same molecule, the GI50 (SF-268) was > 10 µM (inactive), the GI50 (T47D) was > 10 µM (inactive) and the GI50 (COLO 205) was > 10 µM (inactive). The GI50 (NCI-H23) was > 10 µM (inactive), the GI50 (SF-295) was > 10 µM (inactive) and the GI50 (ACHN) was > 10 µM (inactive). For the same molecule, the GI50 (MDA-N) was > 10 µM (inactive), the GI50 (HT-29) was > 10 µM (inactive) and the GI50 (OVCAR-3) was > 10 µM (inactive). For the same molecule, the GI50 (HCT-116) was > 10 µM (inactive), the GI50 (OVCAR-4) was > 10 µM (inactive) and the GI50 (SK-MEL-2) was > 10 µM (inactive).
In the case of `O=C1C(=Cc2cccc(Cl)c2)N=C(c2ccccc2)N1n1c(-c2ccccc2)nc2ccccc2c1=O`, the GI50 (DU-145) is reported as 52.2 µM (inactive), the GI50 (KM12) is reported as 9.55 µM (inactive) and the GI50 (MDA-MB-231) is reported as 50 µM (inactive). For the same molecule, the GI50 (OVCAR-5) was 67.6 µM (inactive), the GI50 (SK-OV-3) was 47.2 µM (inactive) and the GI50 (SR) was 37 µM (inactive). The GI50 (CCRF-CEM) was 22.9 µM (inactive), the GI50 (SNB-19) was 38.1 µM (inactive) and the GI50 (MCF7) was 25.9 µM (inactive). The GI50 (HOP-92) was 27 µM (inactive), the GI50 (SK-MEL-5) was 32.4 µM (inactive) and the GI50 (SF-539) was 27.9 µM (inactive). For the same molecule, the GI50 (NCI/ADR-RES) was 30.9 µM (inactive), the GI50 (M14) was 22.7 µM (inactive) and the GI50 (CAKI-1) was 45.1 µM (inactive). The GI50 (MDA-MB-435) was 36.8 µM (inactive), the GI50 (BT-549) was 23.7 µM (inactive) and the GI50 (OVCAR-8) was 28.7 µM (inactive). For the same molecule, the GI50 (HCT-15) was 49.3 µM, the GI50 (HCC 2998) was 30.7 µM (inactive) and the GI50 (SW-620) was 45.3 µM (inactive). For the same molecule, the GI50 (SK-MEL-28) was 50.2 µM (inactive), the GI50 (UO-31) was 34.4 µM (inactive) and the GI50 (UACC-257) was 32.1 µM (inactive). The GI50 (HL-60) was 24.2 µM (inactive), the GI50 (K562) was 30.3 µM (inactive) and the GI50 (TK-10) was 95.5 µM (inactive). For the same molecule, the GI50 (U-251) was 28 µM (inactive), the GI50 (RPMI-8226) was 40.8 µM (inactive) and the GI50 (NCI-H226) was 63.4 µM (inactive). For the same molecule, the GI50 (A549) was 32.9 µM (inactive), the GI50 (HOP-62) was 34.8 µM (inactive) and the GI50 (NCI-H460) was 6 µM (inactive). For the same molecule, the GI50 (PC-3) was 28.8 µM (inactive), the GI50 (SNB-75) was 29.9 µM (inactive) and the GI50 (786-0) was 47.4 µM (inactive). The GI50 (RXF 393) was 33.5 µM (inactive), the GI50 (IGROV-1) was 35.2 µM (inactive) and the GI50 (EKVX) was 28.4 µM (inactive). The GI50 (UACC-62) was 23.9 µM (inactive), the GI50 (SN12C) was 45.2 µM (inactive) and the GI50 (Hs-578T) was 41.4 µM (inactive). For the same molecule, the GI50 (Malme-3M) was 50.8 µM (inactive), the GI50 (NCI-H522) was 16.4 µM (inactive) and the GI50 (LOX IMVI) was 31.3 µM (inactive). The GI50 (SF-268) was 32.4 µM (inactive), the GI50 (T47D) was 29.7 µM (inactive) and the GI50 (COLO 205) was 40 µM (inactive). The GI50 (NCI-H23) was 20 µM (inactive), the GI50 (SF-295) was 39 µM (inactive) and the GI50 (ACHN) was 37.7 µM (inactive). The GI50 (MDA-N) was 33.8 µM (inactive), the GI50 (MOLT-4) was 23.4 µM (inactive) and the GI50 (HT-29) was 37.2 µM (inactive). The GI50 (OVCAR-3) was 28 µM (inactive), the GI50 (HCT-116) was 10.8 µM (inactive) and the GI50 (OVCAR-4) was 42.3 µM (inactive). The GI50 (SK-MEL-2) was 26.2 µM (inactive).
